What follows are compounds tested against T1, NLRP3 inflammasome (Homo sapiens, UniProt Q96P20) (assay: IL-1β secretion assay (NLRP3 IC50) in LPS-primed, nigericin-activated THP-1 cells, HTRF). Conditions: monocytic THP-1 cells; LPS 10 ng/mL 3 h priming, then compound + nigericin 10 μM 2 h; relative IC50, 10 concentrations, geometric mean.
T1 construct: endogenous in cells; host or cells: THP-1 monocytic cells
Type: cell-based
Procedure, shortened: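 IL-1β in supernatant read by HTRF after 2 h co-incubation of compound (0.1% DMSO, 10 concentrations, 1:3 series) with nigericin at 10 μM final, following 3 h LPS (10 ng/mL) priming of THP-1 monocytes at 37° C. Inhibition normalised to unactivated and no-compound controls; geometric-mean relative IC50 from 4-parameter logistic model.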

T1 sequence (Q96P20 whole entry): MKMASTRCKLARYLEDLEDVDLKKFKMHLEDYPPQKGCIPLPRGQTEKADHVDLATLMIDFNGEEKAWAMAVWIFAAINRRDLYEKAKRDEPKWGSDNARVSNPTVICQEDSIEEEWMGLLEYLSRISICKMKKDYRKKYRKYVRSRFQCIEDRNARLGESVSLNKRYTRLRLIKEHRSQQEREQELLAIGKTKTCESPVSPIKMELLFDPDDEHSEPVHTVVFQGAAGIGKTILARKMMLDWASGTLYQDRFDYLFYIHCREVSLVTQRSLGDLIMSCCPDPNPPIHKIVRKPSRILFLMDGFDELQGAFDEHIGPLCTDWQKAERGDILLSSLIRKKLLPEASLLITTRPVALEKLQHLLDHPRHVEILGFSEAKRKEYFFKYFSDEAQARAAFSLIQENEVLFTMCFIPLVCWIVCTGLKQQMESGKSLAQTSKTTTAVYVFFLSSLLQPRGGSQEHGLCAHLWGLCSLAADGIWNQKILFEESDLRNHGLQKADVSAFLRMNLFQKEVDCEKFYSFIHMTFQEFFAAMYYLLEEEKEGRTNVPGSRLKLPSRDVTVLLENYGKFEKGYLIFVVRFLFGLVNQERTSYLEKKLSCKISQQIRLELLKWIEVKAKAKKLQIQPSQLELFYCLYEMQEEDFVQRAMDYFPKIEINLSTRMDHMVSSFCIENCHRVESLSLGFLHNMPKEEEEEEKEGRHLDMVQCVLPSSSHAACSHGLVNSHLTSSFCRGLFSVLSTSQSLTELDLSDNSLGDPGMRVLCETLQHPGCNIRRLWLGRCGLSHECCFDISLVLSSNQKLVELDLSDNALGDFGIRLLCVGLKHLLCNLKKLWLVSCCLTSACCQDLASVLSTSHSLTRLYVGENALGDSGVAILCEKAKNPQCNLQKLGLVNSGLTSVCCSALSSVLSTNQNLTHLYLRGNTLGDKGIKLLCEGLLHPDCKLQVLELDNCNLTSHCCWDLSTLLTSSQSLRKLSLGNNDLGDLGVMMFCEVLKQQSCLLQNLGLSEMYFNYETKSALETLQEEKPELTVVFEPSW

IC50 | Structure (SMILES)
0.396 µM | CCc1cccc(O)c1-c1ccc(N2CCO[C@@H]3CCN(C(C)=O)C[C@@H]32)nn1 [Example 424, 1-[(4aS,8aR)-4-[6-(2-ethyl-6-hydroxy-phenyl)pyridazin-3-yl]-3,4a,5,7,8,8a-hexahydro-2H-pyrido[4,3-b][1,4]oxazin-6-yl]ethanone]
0.569 µM | CCc1cccc(O)c1-c1cc(C)c(N2CCO[C@@H]3CCN(C)C[C@@H]32)nn1 [Example 439, 2-[6-[(4aS,8aR)-6-methyl-3,4a,5,7,8,8a-hexahydro-2H-pyrido[4,3-b][1,4]oxazin-4-yl]-5-methyl-pyridazin-3-yl]-3-ethyl-phenol]
0.195 µM | CC(=O)N1CC[C@H]2OCCN(c3cc(C(F)F)c(-c4ccc(Cl)cc4O)nn3)[C@H]2C1 [Example 442, 1-[(4aS,8aR)-4-[6-(4-chloro-2-hydroxy-phenyl)-5-(difluoromethyl)pyridazin-3-yl]-3,4a,5,7,8,8a-hexahydro-2H-pyrido[4,3-b][1,4]oxazin-6-yl]ethanone]
0.002 µM | CCN1CC[C@H]2OCCN(c3cc(C(F)F)c(-c4ccc(Cl)cc4O)nn3)[C@H]2C1 [Example 456, 2-[6-[(4aS,8aR)-6-ethyl-3,4a,5,7,8,8a-hexahydro-2H-pyrido[4,3-b][1,4]oxazin-4-yl]-4-(difluoromethyl)pyridazin-3-yl]-5-chloro-phenol]
0.001 µM | CCc1cc(Cl)cc(O)c1-c1ccc(N2CCO[C@@H]3CCN(C)C[C@@H]32)nn1 [Example 461, 2-[6-[(4aS,8aR)-6-methyl-3,4a,5,7,8,8a-hexahydro-2H-pyrido[4,3-b][1,4]oxazin-4-yl]pyridazin-3-yl]-5-chloro-3-ethyl-phenol]
0.251 µM | CC(=O)N1CCC[C@@H]2[C@H]1CCCN2c1ccc(-c2c(C)cc(C(F)(F)F)cc2O)nn1 [Example 462, 1-[(4aR,8aR)-5-[6-[2-hydroxy-6-methyl-4-(trifluoromethyl)phenyl]pyridazin-3-yl]-2,3,4,4a,6,7,8,8a-octahydro-1,5-naphthyridin-1-yl]ethanone]
3.78 µM | CC(=O)N1CCC[C@H]2[C@@H]1CCCN2c1ccc(-c2c(C)cc(C(F)(F)F)cc2O)nn1 [Example 463, 1-[(4aS,8aS)-5-[6-[2-hydroxy-6-methyl-4-(trifluoromethyl)phenyl]pyridazin-3-yl]-2,3,4,4a,6,7,8,8a-octahydro-1,5-naphthyridin-1-yl]ethanone]
0.00038 µM | CCc1cc(N2CCO[C@@H]3CCN(C)C[C@@H]32)nnc1-c1ccc(C)cc1O [Example 470, 2-[6-[(4aS,8aR)-6-methyl-3,4a,5,7,8,8a-hexahydro-2H-pyrido[4,3-b][1,4]oxazin-4-yl]-4-ethyl-pyridazin-3-yl]-5-methyl-phenol]
0.001 µM | Cc1cc(N2CCO[C@@H]3CCN(C)C[C@@H]32)nnc1-c1ccc2c(c1O)CCC2 [Example 471, 5-[6-[(4aS,8aR)-6-methyl-3,4a,5,7,8,8a-hexahydro-2H-pyrido[4,3-b][1,4]oxazin-4-yl]-4-methyl-pyridazin-3-yl]indan-4-ol]
0.001 µM | Cc1ccc(-c2nnc(N3CCO[C@@H]4CCN(C(C)C)C[C@@H]43)cc2C)c(O)c1 [Example 472, 2-[6-[(4aS,8aR)-6-isopropyl-3,4a,5,7,8,8a-hexahydro-2H-pyrido[4,3-b][1,4]oxazin-4-yl]-4-methyl-pyridazin-3-yl]-5-methyl-phenol]
0.005 µM | CCN1CC[C@H]2OCCN(c3cc(C)c(-c4ccc(F)cc4O)nn3)[C@H]2C1 [Example 479, 2-[6-[(4aS,8aR)-6-ethyl-3,4a,5,7,8,8a-hexahydro-2H-pyrido[4,3-b][1,4]oxazin-4-yl]-4-methyl-pyridazin-3-yl]-5-fluoro-phenol]
0.006 µM | Cc1cc(N2CCO[C@@H]3CCN(C)C[C@@H]32)nnc1-c1ccc(F)cc1O [Example 480, 2-[6-[(4aS,8aR)-6-methyl-3,4a,5,7,8,8a-hexahydro-2H-pyrido[4,3-b][1,4]oxazin-4-yl]-4-methyl-pyridazin-3-yl]-5-fluoro-phenol]
0.002 µM | CCc1cc(C(F)(F)F)cc(O)c1-c1ccc(N2CCO[C@@H]3CCN(C)C[C@@H]32)nn1 [Example 481, 2-[6-[(4aS,8aR)-6-methyl-3,4a,5,7,8,8a-hexahydro-2H-pyrido[4,3-b][1,4]oxazin-4-yl]pyridazin-3-yl]-3-ethyl-5-(trifluoromethyl)phenol]
0.04 µM | C#Cc1cc(C)c(-c2ccc(N3CCO[C@H](CO)C3)nn2)c(O)c1 [Example 508, 5-ethynyl-2-[6-[(2S)-2-(hydroxymethyl)morpholin-4-yl]pyridazin-3-yl]-3-methyl-phenol]
0.044 µM | Cc1cc(C(F)(F)F)cc(O)c1-c1ccc(N2CCC[C@H]3[C@@H]2CCCN3C)nn1 [Example 515, 2-[6-[(4aS,8aS)-5-methyl-2,3,4,4a,6,7,8,8a-octahydro-1,5-naphthyridin-1-yl]pyridazin-3-yl]-3-methyl-5-(trifluoromethyl)phenol]
1.08 µM | Cc1cc(C(F)(F)F)cc(O)c1-c1ccc(N2CCC[C@@H]3[C@H]2CCCN3C)nn1 [Example 516, 2-[6-[(4aR,8aR)-5-methyl-2,3,4,4a,6,7,8,8a-octahydro-1,5-naphthyridin-1-yl]pyridazin-3-yl]-3-methyl-5-(trifluoromethyl)phenol]
1.34 µM | Cc1cc(C)c(-c2ccc(N3CCC[C@@H]4CCN(C)C[C@H]43)nn2)c(O)c1 [Example 517, 2-[6-[(4aR,8aS)-7-methyl-2,3,4,4a,5,6,8,8a-octahydro-1,7-naphthyridin-1-yl]pyridazin-3-yl]-3,5-dimethyl-phenol]

Further lines, the compound ahead of its results:

Structure (SMILES) | IC50
Cc1cc(C)c(-c2ccc(N3CC4CCC3CN(C)C4)nn2)c(O)c1 (stereo not drawn) [Example 410, 3,5-dimethyl-2-[6-(3-methyl-3,6-diazabicyclo[3.2.2]nonan-6-yl)pyridazin-3-yl]phenol] | 2.18 µM
Cc1cccc(O)c1-c1ccc(N2CCO[C@@H]3CCNC[C@@H]32)nn1 [Example 411, 2-[6-[(4aS,8aR)-2,3,4a,5,6,7,8,8a-octahydropyrido[4,3-b][1,4]oxazin-4-yl]pyridazin-3-yl]-3-methyl-phenol] | 0.344 µM
Cc1cc(C(F)(F)F)cc(O)c1-c1ccc(N2CC3CCC2CN(C)C3)nn1 (stereo not drawn) [Example 417, 3-methyl-2-[6-(3-methyl-3,6-diazabicyclo[3.2.2]nonan-6-yl)pyridazin-3-yl]-5-(trifluoromethyl)phenol] | 0.716 µM
Cc1cc(C)c(-c2ccc(N3CCCC34CCCN(C)C4)nn2)c(O)c1 (stereo not drawn) [Example 428, 3,5-dimethyl-2-[6-(9-methyl-1,9-diazaspiro[4.5]decan-1-yl)pyridazin-3-yl]phenol] | 1.02 µM
Cc1cc(C)c(-c2ccc(N3CCC4(CN(C)CCO4)C3)nn2)c(O)c1 (stereo not drawn) [Example 440, 3,5-dimethyl-2-[6-(9-methyl-6-oxa-2,9-diazaspiro[4.5]decan-2-yl)pyridazin-3-yl]phenol] | 3.28 µM
Cc1cc(C)c(-c2ccc(N3CCCC4(COCCN4C)C3)nn2)c(O)c1 (stereo not drawn) [Example 441, 3,5-dimethyl-2-[6-(1-methyl-4-oxa-1,8-diazaspiro[5.5]undecan-8-yl)pyridazin-3-yl]phenol] | 4.67 µM
Cc1cc(C)c(-c2ccc(N3CCC4(COCCN4C)C3)nn2)c(O)c1 (stereo not drawn) [Example 444, 3,5-dimethyl-2-[6-(6-methyl-9-oxa-2,6-diazaspiro[4.5]decan-2-yl)pyridazin-3-yl]phenol] | 4.06 µM
Cc1cc(C)c(-c2ccc(N3CC[C@]4(CN(C)CCO4)C3)nn2)c(O)c1 [Example 445, 3,5-dimethyl-2-[6-[(5S)-9-methyl-6-oxa-2,9-diazaspiro[4.5]decan-2-yl]pyridazin-3-yl]phenol] | 1.9 µM
Cc1cc(C)c(-c2ccc(N3CC[C@@]4(CN(C)CCO4)C3)nn2)c(O)c1 [Example 446, 3,5-dimethyl-2-[6-[(5R)-9-methyl-6-oxa-2,9-diazaspiro[4.5]decan-2-yl]pyridazin-3-yl]phenol] | 0.815 µM
Cc1cc(C)c(-c2ccc(N3CCOCC34CCCN(C)C4)nn2)c(O)c1 (stereo not drawn) [Example 449, 3,5-dimethyl-2-[6-(8-methyl-4-oxa-1,8-diazaspiro[5.5]undecan-1-yl)pyridazin-3-yl]phenol] | 4.19 µM
Cc1cc(C)c(-c2ccc(N3CC[C@]4(COCCN4C)C3)nn2)c(O)c1 [Example 450, 3,5-dimethyl-2-[6-[(5R)-6-methyl-9-oxa-2,6-diazaspiro[4.5]decan-2-yl]pyridazin-3-yl]phenol] | 2.04 µM
Cc1cc(C)c(-c2ccc(N3CC[C@@]4(COCCN4C)C3)nn2)c(O)c1 [Example 451, 3,5-dimethyl-2-[6-[(5S)-6-methyl-9-oxa-2,6-diazaspiro[4.5]decan-2-yl]pyridazin-3-yl]phenol] | 1.65 µM
Cc1cc(C)c(-c2ccc(N3CCOCC34CN(C)C4)nn2)c(O)c1 [Example 455, 3,5-dimethyl-2-[6-(2-methyl-8-oxa-2,5-diazaspiro[3.5]nonan-5-yl)pyridazin-3-yl]phenol] | 7.15 µM
CC(=O)N1CC[C@H]2CCN(c3cc(C)c(-c4ccc(C)cc4O)nn3)[C@H]2C1 [Example 457, 1-[(3aR,7aR)-1-[6-(2-hydroxy-4-methyl-phenyl)-5-methyl-pyridazin-3-yl]-3,3a,4,5,7,7a-hexahydro-2H-pyrrolo[2,3-c]pyridin-6-yl]ethenone] | 0.432 µM
Cc1cc(O)c(-c2ccc(N3CCO[C@H](CO)C3)nn2)c(C(F)(F)F)c1 [Example 509, 2-[6-[(2S)-2-(hydroxymethyl)morpholin-4-yl]pyridazin-3-yl]-5-methyl-3-(trifluoromethyl)phenol] | 0.016 µM
CC(=O)N1CC[C@H]2CCN(c3cc(C)c(-c4ccc(C(F)(F)F)cc4O)nn3)[C@H]2C1 [Example 514, 1-[(3aR,7aR)-1-[6-[2-hydroxy-4-(trifluoromethyl)phenyl]-5-methyl-pyridazin-3-yl]-3,3a,4,5,7,7a-hexahydro-2H-pyrrolo[2,3-c]pyridin-6-yl]ethanone] | 0.196 µM

Reference: US20240360151A1 (SANOFI, priority 2023, published 2024)
